Source: US20250332283A1, “NUCLEOTIDE DELIVERY FROM INJECTABLE HYDROPHOBIC BIOMATERIAL” (DANMARKS TEKNISKE UNIVERSITET, priority 2022, published 2025)
Entries after “also recorded” stand apart in the source; their conditions may differ. {5AmMC6} = amino-modifier C6 linker (IDT), here bearing the Gd-DOTA label; l = locked nucleic acid (LNA); d = 2'-deoxy (DNA)

Key:
[1] = Biodistribution of Gd-ASO after intratumoral injection, ICP-MS; type: in vivo, 4T1 tumor bearing Balb/CJRj mice
Method: Methods: Gadolinium-labeled ASOs were synthesized as described in example 41. Spermine-Chol Gd-ASO complexes were prepared using the hydrophobic ionpairing method as described in example 43. The ASO complex was concentrated by freeze-drying, dissolved i in DMSO and embedded into NCCell (SuBen: GTH: EtOH: DMSO 55:20:2:15) according to example 45. The final Gd-ASO concentration in the NCCell was […]. Free Gd-ASO was prepared in PBS buffer at a concentration of 0.95 μg/μL.
On Day 0, 4T1 tumor bearing Balb/CJRj mice were, under anesthesia (isoflurane), injected intratumorally with 50 μL of NCCell or 42 μL of free Gd-ASO in PBS, with a total concentration of 40 μg Gd-ASO per injection. […] Free ASO was injected using a 23G needle.
Blood was collected from different groups 10 minutes, 1 hour, 4 hours, 24 hours, 72 hours and 5 days after treatment. Organs and other fluids (liver, spleen, lungs, kidneys) were harvested 24 hours and 5 days after treatment. For sample processing, full organ weight was recorded, as well as the weight of the tissue used, and was further processed for ICP-MS measurements. To prepare tissue for ICP-MS analysis, 50-100 mg of organs or NCCell were digested in 500 μL HNO3, (69%) 50 μL HCl (37%) and 300 μL H2O2 (35%) at 65° C. overnight followed by further dilutions in water and 2% HCl and subjected to ICP-MS analysis using Ir (0.5 ppb) as internal standard.

[2] = at a neutral pH of 7; cited from earlier work

| Compound | Gd-ASO concentration in liver, spleen, kidney and lung ([1]; 24 and 120 hours after intratumoral injection of 40 μg Gd-ASO) | Gd-ASO in blood ([1]; 10 minutes to 5 days after intratumoral injection, listed as free ASOs) | logP [2] |
| --- | --- | --- | --- |
| free ASO: Gd-DOTA labelled ASO /5AmMC6/+G*+T*+C*A*C*A*A*T*G*C*A*T*T*+C*+T*+A in PBS (DNA GTCACAATGCATTCTA; sugars from the 5' end l3 d10 l3, all phosphorothioate, 5' {5AmMC6}, methylation of C not given here; Gd-DOTA attached via 5' amino linker) | highest concentration of free ASO was observed in the lungs, followed by the liver and spleen | could be detected 10 minutes after injection; also recorded: no detectable Gd signal in the blood at later timepoints | – |
| CCN(CCO)CCCOc1ccc2c(Nc3cc(CC(=O)Nc4cccc(F)c4)[nH]n3)ncnc2c1 [AZD281] | – | – | 2 |
